Source: patent publication US20060293264A1, “STAT3 decoy oligonucleotides and uses therefor” (priority 2004, published 2006)
“Also recorded” adds a separate entry of the source.

Experiments:
[1] = tested on: SCCHN xenografts (1483 cells); experiment: In vivo tumor xenograft study, tumor volumes; parameters: species or system athymic nude mice; settings: 25 μg intratumoral daily, 1483 xenografts, nude mice; p=0.002
Experimental: Statistics. In vivo comparisons of STAT3, cyclin D1 and Bcl-xL expression levels were conducted with the Wilcoxon test for comparing two groups or the Kruskal-Wallis test for comparing three groups. All tests were exact and two-tailed. Studies of the joint effect of STAT3 decoy and cisplatin upon in vitro apoptosis were evaluated with a two way factorial design. Additive and synergistic effects of the STAT3 decoy and cisplatin were tested with a permutation test. In vivo tumor xenograft experiments were analyzed with mixed linear models that assumed animals were random effects having an unstructured within-animal covariance matrix. Data were log transformed and examined for the interaction between treatment group and day of observation beginning with day 10 after tumor inoculation, differences between treatment groups were estimated and tested with the pooled estimated standard error. Multiple comparisons were controlled by simulating observations from a multivariate t distribution with the same covariance matrix as the observed data and adjusting p values accordingly.
(§1) In vivo tumor xenograft studies. Female athymic nude mice nu/nu (4-6 weeks old; 20±2 g; Harlan-Sprague-Dawley) were implanted with 1×10^6 1483 cells into the right and left flank with a 26-gauge needle/1 ml tuberculin syringe, resulting in two tumors per mouse. […]

[2] = tested on: SCCHN xenografts (1483 cells); experiment: In vivo apoptosis determination by TUNEL in harvested xenografts; parameters: species or system athymic nude mice; settings: xenografts harvested after 25 treatments; p=0.00038
Experimental: In vivo apoptosis determinations. Detection and quantitation of apoptosis was performed by the TUNEL reaction, using the In Situ Cell Death Detection Kit, POD (Roche Diagnostics GmbH, Roche Applied Science, Sandhofer Strasse 116, D-68305 Mannheim, Germany). Cryostat sections were fixed in 4% paraformaldehyde in PBS for 30 min. After washing with PBS for 30 min, the sections were incubated in permeabilization solution (0.1% Triton X-100, 0.1% sodium citrate) for 2 min on ice. The sections were washed twice with PBS before the samples were incubated for 60 min at 37° C. with TUNEL reaction mixture to label DNA strand breaks with Fluorescein-dUTP. After washing three times with PBS, the samples were incubated with Converter-POD for 30 min at 37° C., washed again with PBS, and finally exposed to 0.025% 3,3′-diaminobenzidine (DAB)/0.01% H2O2 in Tris-HCl buffer (pH 7.4) for 10 min. The number of apoptotic cells per high-power field (HPF) was counted. For each treatment, five samples were evaluated, and 5-10 fields of view were quantified on each section.
as §1

[3] = tested on: Cyclin D1; experiment: Cyclin D1 expression by immunoblotting in harvested xenografts; type: in vivo, human; settings: decoy alone, p=0.0022
Experimental: Immunoblotting. Whole cell extracts were mixed with 2× sodium dodecyl sulfate (SDS) sample buffer (125 mmol/L Tris-HCL, pH 6.8; 4% SDS; 20% glycerol; 10% 2 mercaptoethanol) at 1:1 ratio and were heated for 5 min at 100° C. Proteins (50 μg/lane) were separated by 12.5% SDS-PAGE and transferred onto a nitrocellulose membrane (MSI; Westboro, Mass). Prestained molecular weight markers (GIBCO BRL; Gaithersburg, MD) were included in each gel. Membranes were blocked for 30 min in Tris-buffered saline (TBS: 10 mmol/L Tris-HCL, pH 7.5 and 150 mmol/L NaCl) with 0.5% Tween-20 (TBST) and 5% BSA. After blocking, membranes were incubated with a primary antibody; rabbit anti-human VEGF polyclonal antibody, rabbit anti-human Cyclin D1 polyclonal antibody, mouse anti-human Bcl-xL monoclonal antibody, or rabbit anti-human PCNA polyclonal antibody (Santa Cruz Biotechnology, Santa Cruz, Calif.), in TBST and 1% BSA. […] Quantification of Cyclin D1 and Bcl-xL was performed by using a Molecular Dynamics Personal Densitometer SI and IMAGEQUANT software (Image Products International, Chantilly, Va.). Immunoblotting bands were quantified by densitometry and the Molecular Analyst software (AlphaDigidoc 1000, Alpho-Innotech) with normalization of each band to their corresponding loading control (Xi, S., et al. J Biol Chem, 278: 31574-31583, 2003). […]

[4] = tested on: Egr-1 transcription recognition sequence; experiment: pEgr-1-Luc reporter assay in SCCHN cells; type: cell-based; settings: SCCHN cells co-transfected with 2 μg pEgr-1-Luc and 2 μg decoy, 24 hrs
Experimental: STAT3 decoy-specific transcriptional repression of Egr-1(Early Growth Response -1 enhancer, pEGR-1-Luc, Stratagene Cat. No. 240130, containing three repeats of the Egr-1 transcription recognition sequence: 5′-GGGTGGGGN-3′ (SEQ ID NO: 31) was also observed. SCCHN cells were co-transfected with 2 μg pEgr-1-Luc plasmid and 2 μg of the STAT3 decoy or the control mutant decoy. At 24 hrs after transfection, luciferase activity was measured and normalized to the total amount of protein according to standard methods.

[5] = tested on: head and neck squamous cell carcinoma; settings: dose-dependent; Leong et al. 2003; cited from earlier work

## STAT3 decoy (sense CATTTCCCGTAAATC; antisense GATTTACGGGAAATG; phosphorothioate modified, further chemistry not given here; listed as Homo sapiens)
[1]
  tumor growth (tumor volumes) compared with mutant control decoy: significantly decreased; also recorded: growth inhibited
[2]
  increase in apoptosis (TUNEL) compared with mutant control decoy: 3.25 fold
[3]
  Cyclin D1 expression levels compared with mutant control decoy: significant effect
[4]
  transcriptional repression of Egr-1 enhancer reporter: observed
[5]
  head and neck squamous cell carcinoma growth in vitro: abrogate
